Experimental data published in patent publication US12174192B2, “Methods for detecting and treating cancers having adenosine pathway activation” (Corvus Pharmaceuticals, Inc., priority 2018, dated 2024).
Entries after “also recorded” stand apart in the source; their conditions may differ.

Assays:
Format in all cases: cell-based
[1] = system: human peripheral blood mononuclear cells (PBMCs); test: NanoString mRNA quantification in NECA-treated, anti-CD3/CD28-activated PBMCs; conditions: 0.1 μM, 1 μM, and/or 10 μM NECA vs vehicle-treated control
Protocol: (§1) RNA purified from normal, healthy human peripheral blood mononuclear cells (PBMCs) treated with 5′-N-ethylcarboxamidoadenosine (NECA) and activated with anti-CD3/CD28 antibody were analyzed by NanoString hybridization-based quantification (NanoString Technologies, Inc.). […] Each dot represents the expression level of a specific gene. Dot shade represents the concentration of NECA used and/or different PBMC donors.

[2] = system: human peripheral blood mononuclear cells (PBMCs); test: RNA sequencing (RNA-Seq) of NECA-treated, anti-CD3/CD28-activated PBMCs
Protocol: as §1, with “donors. […] Data were confirmed by RNA sequencing (RNA-Seq).” for “donors.”

PBMCs = test: CXCL5 protein ELISA in culture supernatants of PBMCs treated with NECA +/- CPI-444; conditions: PBMCs from two human donors; two days after anti-CD3/CD28 activation; DMSO vehicle control
Protocol: Expression of CXCL5 was determined by ELISA 2 days after activation.
FIGS. 2B and 2C show the response of PBMCs from two different donors to NECA+/−CPI-444 treatment. DMSO was used as vehicle control. […] This control helps establish that the induction of CXCL5 is specific to signaling through adenosine receptors.
NECA activation of CXCL5 protein expression was evaluated. PBMCs were harvested from two different human donors. […] CPI-444 (Corvus Pharmaceuticals) is an antagonist of the adenosine A2A receptor. CXCL5 protein in the culture supernatants was evaluated by ELISA two days after activation. CXCL5 expression is activated by NECA. […] This establishes that the induction of CXCL5 is specific to signaling through adenosine receptors.

SMILES: CCNC(=O)[C@H]1O[C@@H](n2cnc3c(N)ncnc32)[C@H](O)[C@@H]1O [NECA, 5′-N-ethylcarboxamidoadenosine]
- logFC CD14 expression [1]: 0.4485
- logFC CD86 expression [1]: 0.3148
- logFC CLEC5A expression [1]: 0.3833
- logFC CXCL1 expression [1]: 0.6909
- logFC CXCL2 expression [1]: 1.093
- logFC CXCL3 expression [1]: 1.101
- logFC CXCL5 expression [1]: 1.338
- logFC CXCL6 expression [1]: 0.6535
- logFC IL1A expression [1]: 0.6367
- logFC IL1B expression [1]: 0.6345
- logFC IL6 expression [1]: 0.7014
- logFC IL8 expression [1]: 0.6411
- logFC IL23A expression [1]: 0.4628
- logFC IL24 expression [1]: 0.5768
- logFC PLAUR expression [1]: 0.5031
- logFC PPBP expression [1]: 0.683
- logFC PTGS2 expression [1]: 0.6892
- logFC SLC11A1 expression [1]: 0.7022
- logFC TBX21 expression [1]: −0.1238
- logFC THBS1 expression [1]: 0.8703
- logFC CCL24 expression ([2]; Control (DMSO) vs 0.1 μm NECA): −1.068
- logFC CD93 expression ([2]; Control (DMSO) vs 0.1 μm NECA): 0.9975
- logFC CSF3 expression ([2]; Control (DMSO) vs 0.1 μm NECA): 1.603
- logFC CXCL2 expression ([2]; Control (DMSO) vs 0.1 μm NECA): 1.452
- logFC CXCL3 expression ([2]; Control (DMSO) vs 0.1 μm NECA): 1.694
- logFC CXCL5 expression ([2]; Control (DMSO) vs 0.1 μm NECA): 2.388
- logFC EHF expression ([2]; Control (DMSO) vs 0.1 μm NECA): −0.2753
- logFC EML6 expression ([2]; Control (DMSO) vs 0.1 μm NECA): 0.2117
- logFC EPB41L3 expression ([2]; Control (DMSO) vs 0.1 μm NECA): 1.183
- logFC FUT7 expression ([2]; Control (DMSO) vs 0.1 μm NECA): −0.2135
- logFC HAS1 expression ([2]; Control (DMSO) vs 0.1 μm NECA): 2.059
- logFC IL23A expression ([2]; Control (DMSO) vs 0.1 μm NECA): 0.7971
- logFC INHBA expression ([2]; Control (DMSO) vs 0.1 μm NECA): 0.5196
- logFC KLC4 expression ([2]; Control (DMSO) vs 0.1 μm NECA): 0.216
- logFC LAYN expression ([2]; Control (DMSO) vs 0.1 μm NECA): 0.4228
- logFC MRPL11 expression ([2]; Control (DMSO) vs 0.1 μm NECA): −0.19
- logFC MS4A7 expression ([2]; Control (DMSO) vs 0.1 μm NECA): 0.9319
- logFC NPR1 expression ([2]; Control (DMSO) vs 0.1 μm NECA): 0.7892
- logFC OST4 expression ([2]; Control (DMSO) vs 0.1 μm NECA): −0.2352
- logFC PADI2 expression ([2]; Control (DMSO) vs 0.1 μm NECA): 0.4802
- logFC PTGS2 expression ([2]; Control (DMSO) vs 0.1 μm NECA): 1.184
- logFC SLC7A7 expression ([2]; Control (DMSO) vs 0.1 μm NECA): 0.5935
- logFC SPON1 expression ([2]; Control (DMSO) vs 0.1 μm NECA): 0.3611
- logFC ST6GALNAC2 expression ([2]; Control (DMSO) vs 0.1 μm NECA): 0.5342
- logFC SYTL3 expression ([2]; Control (DMSO) vs 0.1 μm NECA): 0.2894
- logFC WDR83OS expression ([2]; Control (DMSO) vs 0.1 μm NECA): −0.2872
- logFC ZBTB18 expression ([2]; Control (DMSO) vs 0.1 μm NECA): 0.2431
- logFC CCDC60 expression ([2]; Control (DMSO) vs 1 μm NECA): 0.07658
- logFC CD93 expression ([2]; Control (DMSO) vs 1 μm NECA): 1.454
- logFC CSF3 expression ([2]; Control (DMSO) vs 1 μm NECA): 2.802
- logFC CXCL2 expression ([2]; Control (DMSO) vs 1 μm NECA): 2.361
- logFC CXCL3 expression ([2]; Control (DMSO) vs 1 μm NECA): 2.573
- logFC CXCL5 expression ([2]; Control (DMSO) vs 1 μm NECA): 3.451
- logFC EHF expression ([2]; Control (DMSO) vs 1 μm NECA): −0.2522
- logFC EMR3 expression ([2]; Control (DMSO) vs 1 μm NECA): 1.364
- logFC EPB41L3 expression ([2]; Control (DMSO) vs 1 μm NECA): 1.854
- logFC EREG expression ([2]; Control (DMSO) vs 1 μm NECA): 1.89
- logFC FUT7 expression ([2]; Control (DMSO) vs 1 μm NECA): −0.4158
- logFC GPR157 expression ([2]; Control (DMSO) vs 1 μm NECA): 0.9283
- logFC HAS1 expression ([2]; Control (DMSO) vs 1 μm NECA): 3.238
- logFC IL23A expression ([2]; Control (DMSO) vs 1 μm NECA): 1.363
- logFC IL24 expression ([2]; Control (DMSO) vs 1 μm NECA): 2.876
- logFC INHBA expression ([2]; Control (DMSO) vs 1 μm NECA): 0.9638
- logFC LAYN expression ([2]; Control (DMSO) vs 1 μm NECA): 0.5277
- logFC MS4A7 expression ([2]; Control (DMSO) vs 1 μm NECA): 1.535
- logFC OST4 expression ([2]; Control (DMSO) vs 1 μm NECA): −0.1747
- logFC PADI2 expression ([2]; Control (DMSO) vs 1 μm NECA): 0.7173
- logFC PID1 expression ([2]; Control (DMSO) vs 1 μm NECA): 1.729
- logFC PTGS2 expression ([2]; Control (DMSO) vs 1 μm NECA): 2.23
- logFC SLC7A7 expression ([2]; Control (DMSO) vs 1 μm NECA): 0.9514
- logFC SPON1 expression ([2]; Control (DMSO) vs 1 μm NECA): 0.5667
- logFC ST6GALNAC2 expression ([2]; Control (DMSO) vs 1 μm NECA): 0.8306
- logFC TGIF1 expression ([2]; Control (DMSO) vs 1 μm NECA): 0.4769
- logFC ZBTB18 expression ([2]; Control (DMSO) vs 1 μm NECA): 0.3385
- logFC CCNE1 expression ([2]; Control (DMSO) vs 10 μm NECA): −0.4518
- logFC CD93 expression ([2]; Control (DMSO) vs 10 μm NECA): 1.895
- logFC CD300E expression ([2]; Control (DMSO) vs 10 μm NECA): 1.71
- logFC CSF3 expression ([2]; Control (DMSO) vs 10 μm NECA): 3.508
- logFC CXCL2 expression ([2]; Control (DMSO) vs 10 μm NECA): 3.011
- logFC CXCL3 expression ([2]; Control (DMSO) vs 10 μm NECA): 3.106
- logFC CXCL5 expression ([2]; Control (DMSO) vs 10 μm NECA): 3.354
- logFC DFNA5 expression ([2]; Control (DMSO) vs 10 μm NECA): 0.6559
- logFC ECEL1 expression ([2]; Control (DMSO) vs 10 μm NECA): 0.6918
- logFC EPB41L3 expression ([2]; Control (DMSO) vs 10 μm NECA): 2
- logFC GALM expression ([2]; Control (DMSO) vs 10 μm NECA): −0.3189
- logFC GBP6 expression ([2]; Control (DMSO) vs 10 μm NECA): −0.8039
- logFC GPR157 expression ([2]; Control (DMSO) vs 10 μm NECA): 1.139
- logFC HAS1 expression ([2]; Control (DMSO) vs 10 μm NECA): 3.807
- logFC IL5 expression ([2]; Control (DMSO) vs 10 μm NECA): −0.6885
- logFC IL23A expression ([2]; Control (DMSO) vs 10 μm NECA): 1.332
- logFC INHBA expression ([2]; Control (DMSO) vs 10 μm NECA): 1.192
- logFC LAP3 expression ([2]; Control (DMSO) vs 10 μm NECA): −0.4286
- logFC LOC100505585 expression ([2]; Control (DMSO) vs 10 μm NECA): 0.6639
- logFC NID1 expression ([2]; Control (DMSO) vs 10 μm NECA): 1.087
- logFC PADI2 expression ([2]; Control (DMSO) vs 10 μm NECA): 0.9386
- logFC PID1 expression ([2]; Control (DMSO) vs 10 μm NECA): 2.124
- logFC PTGS2 expression ([2]; Control (DMSO) vs 10 μm NECA): 2.349
- logFC RHCG expression ([2]; Control (DMSO) vs 10 μm NECA): 0.5767
- logFC SLC7A7 expression ([2]; Control (DMSO) vs 10 μm NECA): 0.9134
- logFC SPON1 expression ([2]; Control (DMSO) vs 10 μm NECA): 0.568
- logFC ST6GALNAC2 expression ([2]; Control (DMSO) vs 10 μm NECA): 0.876
- CXCL5 protein in culture supernatants (ELISA), effect of NECA (PBMCs): activated; also recorded: dose-dependent increase in CXCL5
